The results in this text go back to PubChem BioAssay AID2060344 (Molecular Pharmacology Branch, DTP, NCI, 2025).

The term IC50 denotes the concentration that inhibits the measured activity by half. In general, viability, T/C refers to the result in the treated group divided by that in the control group, in per cent.

Several values for one entry are separate records, joined by “and”; a condition that tells them apart may be missing. Equal entries are not always repeated. Where only a bound is given, the exact number is not on record here.

The assay concerns SK-MEL-2 multi-cell spheroids, viability. The experiment in a line: Anticancer human tumor SK-MEL-2 cell line growth inhibition [TAK].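 For all read-outs here: spheroids exposed to drugs for seven days before readout.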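 For viability, T/C: percent of DMSO vehicle control luminescence so 100% = untreated viability.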 The settings on record: for viability, T/C: stronger effect = lower value. The method, boiled down:
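Drug combinations, each paired with TAK-243 or ipatasertib, were tested on multi-cell spheroids of 60% malignant cells, 25% HUVEC and 15% hMSC. Top concentrations were at or near the clinical Cmax (10 microM if undetermined), decreasing by half-log; viability is given as % test/control.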

Setting [1] is: curve of first compound, second compound 0.3 µM.
The mark [2] stands for this setting: curve of first compound, second compound 0.949 µM.
Where [3] appears, read: curve of first compound, second compound 3 µM.
Where [4] appears, read: curve of first compound, second compound 9.49 µM.
Setting [5] is: curve of first compound, second compound 30 µM.
Setting [6] is: second compound 0.3 µM, first compound 0.00316 µM.
Where [7] appears, read: second compound 0.3 µM, first compound 0.01 µM.
Setting [8] is: second compound 0.3 µM, first compound 0.0316 µM.
Setting [9] is: second compound 0.3 µM, first compound 0.1 µM.
The mark [10] stands for this setting: second compound 0.949 µM, first compound 0.00316 µM.
The mark [11] stands for this setting: second compound 0.949 µM, first compound 0.01 µM.
Where [12] appears, read: second compound 0.949 µM, first compound 0.0316 µM.
[13] abbreviates: second compound 0.949 µM, first compound 0.1 µM.
Where [14] appears, read: second compound 3 µM, first compound 0.00316 µM.
[15] abbreviates: second compound 3 µM, first compound 0.01 µM.
[16] abbreviates: second compound 3 µM, first compound 0.0316 µM.
The mark [17] stands for this setting: second compound 3 µM, first compound 0.1 µM.
[18] abbreviates: second compound 9.49 µM, first compound 0.00316 µM.
Setting [19] is: second compound 9.49 µM, first compound 0.01 µM.
[20] abbreviates: second compound 9.49 µM, first compound 0.0316 µM.
The mark [21] stands for this setting: second compound 9.49 µM, first compound 0.1 µM.
Setting [22] is: second compound 30 µM, first compound 0.00316 µM.
Where [23] appears, read: second compound 30 µM, first compound 0.01 µM.
Setting [24] is: second compound 30 µM, first compound 0.0316 µM.
[25] abbreviates: second compound 30 µM, first compound 0.1 µM.
The mark [26] stands for this setting: second compound 0.3 µM, first compound 0.000316 µM.
[27] abbreviates: second compound 0.3 µM, first compound 0.001 µM.
[28] abbreviates: second compound 0.949 µM, first compound 0.000316 µM.
The mark [29] stands for this setting: second compound 0.949 µM, first compound 0.001 µM.
[30] abbreviates: second compound 3 µM, first compound 0.000316 µM.
Setting [31] is: second compound 3 µM, first compound 0.001 µM.
Where [32] appears, read: second compound 9.49 µM, first compound 0.000316 µM.
The mark [33] stands for this setting: second compound 9.49 µM, first compound 0.001 µM.
Where [34] appears, read: second compound 30 µM, first compound 0.000316 µM.
[35] abbreviates: second compound 30 µM, first compound 0.001 µM.

For `COc1c(OCCCN2CCOCC2)ccc2c3n(c(=NC(=O)c4cnc(N)nc4)nc12)CCN3` + CC(C)NCC(C(=O)N1CCN(c2ncnc3c2C(C)CC3O)CC1)c1ccc(Cl)cc1, the IC50 under setting [1] was found to be 51.3 nM; the IC50 under setting [2] was 29.4 nM; the half-inhibitory concentration (IC50) under setting [3] turned out to be 20.8 nM; the IC50 under setting [4] is 14.5 nM; the IC50 under setting [5] was 9.89 nM. In addition, the viability, T/C is, setting by setting: under setting [6], 92%; under setting [7], 72.5%; under setting [8], 50.6%; under setting [9], 45.6%; (second compound 0.3 µM, first compound 0.316 µM) 30.9%; (second compound 0.3 µM, first compound 1 µM) 19.5%. The viability, T/C by setting is: under setting [10], 81%; under setting [11], 65%; under setting [12], 47.1%; under setting [13], 38.4%; (second compound 0.949 µM, first compound 0.316 µM) 27.6%; (second compound 0.949 µM, first compound 1 µM) 21%. For the same compound, the viability, T/C is 68.5% under setting [14]; 62.9% under setting [15]; 40.2% under setting [16]; 34.2% under setting [17]; 26.1% (second compound 3 µM, first compound 0.316 µM); 19.5% (second compound 3 µM, first compound 1 µM). Besides, the viability, T/C was 59.8% under setting [18]; 57.6% under setting [19]; 37% under setting [20]; 31.4% under setting [21]; 24.6% (second compound 9.49 µM, first compound 0.316 µM); 21.1% (second compound 9.49 µM, first compound 1 µM). For the same compound, the viability, T/C reads like this: under setting [22], 52.5%; under setting [23], 50.8%; under setting [24], 41.6%; under setting [25], 28.8%; (second compound 30 µM, first compound 0.316 µM) 21.1%; (second compound 30 µM, first compound 1 µM) 16.3%.
With `CC(C)CC(NC(=O)C(Cc1ccccc1)NC(=O)c1cnccn1)B(O)O` (stereo not drawn) + CC(C)NCC(C(=O)N1CCN(c2ncnc3c2C(C)CC3O)CC1)c1ccc(Cl)cc1, the IC50 reads like this: under setting [1], over 10 nM; under setting [2], over 10 nM; under setting [3], over 10 nM; under setting [4], 4.24 nM; under setting [5], 7.76 nM. The viability, T/C runs as follows: (second compound 0.3 µM, first compound 31.6 pM) 116%; (second compound 0.3 µM, first compound 0.0001 µM) 110%; under setting [26], 104%; under setting [27], 117%; under setting [6], 122%; under setting [7], 103%. For the same compound, the viability, T/C reads like this: (second compound 0.949 µM, first compound 31.6 pM) 120%; (second compound 0.949 µM, first compound 0.0001 µM) 116%; under setting [28], 111%; under setting [29], 119%; under setting [10], 111%; under setting [11], 118%. Besides, the viability, T/C by setting is: (second compound 3 µM, first compound 31.6 pM) 119%; (second compound 3 µM, first compound 0.0001 µM) 117%; under setting [30], 98.7%; under setting [31], 106%; under setting [14], 114%; under setting [15], 114%. Also, the viability, T/C runs as follows: (second compound 9.49 µM, first compound 31.6 pM) 118%; (second compound 9.49 µM, first compound 0.0001 µM) 119%; under setting [32], 113%; under setting [33], 109%; under setting [18], 62.5%; under setting [19], 13.1%. Moreover, the viability, T/C was 115% (second compound 30 µM, first compound 31.6 pM); 123% (second compound 30 µM, first compound 0.0001 µM); 111% under setting [34]; 114% under setting [35]; 119% under setting [22]; 31.2% under setting [23].
For `Cn1cnc2c(F)c(Nc3ccc(Br)cc3Cl)c(C(=O)NOCCO)cc21`, the viability, T/C by setting is: (compound 0.00949 µM) 46.8% and 40.8%; (compound 0.03 µM) 34.6% and 17.4%; (compound 0.0949 µM) 19.7% and 9.79%; (compound 0.3 µM) 21.9% and 7.35%; (compound 0.949 µM) 14.6% and 5.25%; (compound 3 µM) 14.1% and 2.56%. Under “curve of compound”, the IC50 was under 9.49 nM.
With `CC(C)(C)c1nc(-c2cccc(NS(=O)(=O)c3c(F)cccc3F)c2F)c(-c2ccnc(N)n2)s1`, the viability, T/C runs as follows: (compound 0.0316 µM) 137% and 126%; (compound 0.1 µM) 126% and 122%; (compound 0.316 µM) 82.3% and 76.3%; (compound 1 µM) 28.8% and 32%; (compound 3.16 µM) 13.3% and 16.8%; (compound 10 µM) 18.9% and 22.2%. Also, where the note is “curve of compound”, the IC50 is 631 nM and 615 nM.
For `COc1c(OCCCN2CCOCC2)ccc2c3n(c(=NC(=O)c4cnc(N)nc4)nc12)CCN3`, the viability, T/C was 93.1% and 92.3% (compound 0.00316 µM); 71.8% and 74% (compound 0.01 µM); 60.8% and 56.7% (compound 0.0316 µM); 44.8% and 46.6% (compound 0.1 µM); 31.1% and 30.9% (compound 0.316 µM); 20.5% and 23.6% (compound 1 µM). For the same compound, where the note is “curve of compound”, the IC50 is 63.9 nM and 61.4 nM.
With `COC1CC2CCC(C)C(O)(O2)C(=O)C(=O)N2CCCCC2C(=O)OC(C(C)CC2CCC(OCCO)C(OC)C2)CC(=O)C(C)C=C(C)C(O)C(OC)C(=O)C(C)CC(C)C=CC=CC=C1C` (stereo not drawn) + CC(C)NCC(C(=O)N1CCN(c2ncnc3c2C(C)CC3O)CC1)c1ccc(Cl)cc1, the IC50 is, setting by setting: under setting [1], 4.54 nM; under setting [2], 0.725 nM; under setting [3], under 0.316 nM; under setting [4], under 0.316 nM; under setting [5], under 0.316 nM. The viability, T/C under setting [26] was 72.6%; the viability, T/C under setting [27] is 60.3%; the viability, T/C under setting [6] is 48.9%; the viability, T/C under setting [7] was 49.6%; the viability, T/C under setting [8] was 45.1%; the viability, T/C under setting [9] is 42.6%. Besides, the viability, T/C is, setting by setting: under setting [28], 58.9%; under setting [29], 47.5%; under setting [10], 39.2%; under setting [11], 38.6%; under setting [12], 37.9%; under setting [13], 36.8%. The viability, T/C was 45.5% under setting [30]; 37.7% under setting [31]; 27.7% under setting [14]; 27.3% under setting [15]; 30.2% under setting [16]; 28% under setting [17]. In addition, the viability, T/C under setting [32] is 36.7%; the viability, T/C under setting [33] is 30.7%; the viability, T/C under setting [18] is 23.2%; the viability, T/C under setting [19] is 23.6%; the viability, T/C under setting [20] is 24%; the viability, T/C under setting [21] was 21.6%. The viability, T/C is 30.3% under setting [34]; 27.6% under setting [35]; 20.4% under setting [22]; 19.1% under setting [23]; 22% under setting [24]; 17.9% under setting [25].
As for `CC(=O)Nc1cccc(-n2c(=O)n(C3CC3)c(=O)c3c(Nc4ccc(I)cc4F)n(C)c(=O)c(C)c32)c1`, the viability, T/C (compound 94.9 pM) is 91% and 88.6%; the viability, T/C (compound 0.0003 µM) is 40.3% and 35.3%; the viability, T/C (compound 0.000949 µM) is 17.9% and 15.7%; the viability, T/C (compound 0.003 µM) is 6.38% and 5.17%; the viability, T/C (compound 0.00949 µM) is 3.87% and 4.14%; the viability, T/C (compound 0.03 µM) was 2.42% and 3.1%. Further, the IC50 (curve of compound) is 0.242 nM and 0.22 nM.
